Measured values: patent US20260184807A1, “Methods for Treating Rheumatoid Arthritis Using a Syndecan-1 Inhibitor or Syntenin-1 Inhibitor” (The United States Government as represented by the …, priority 2022, published 2026)

Tested on: RA FLS
Test: RA FLS scratch assay
Assay type: cell-based, human
Details: Syntenin-1 1000 ng/ml 24 h; SDC1-Ab 1:100, mTORi 1 μM, HIF1αi 2 μM; FIGS. 16J-K
Method: RA STs were fluorescently stained to authenticate the colocalization of Mitofusin (MFN2) (FIGS. 16A-B) and DRP1 (FIGS. 16C-D) expression on Vimentin^+ FLS in the presence or absence of DAPI, (n=3, original magnification×60 or 500). RA FLS were treated with Syntenin-1 (1000 ng/ml) for 0-60 min to detect Mitofusin-2 and DRP1 expression (FIG. 16E, n=3) and actin served as equal loading, (n=3). RA FLS were treated with Syntenin-1 (1000 ng/ml) in the presence or absence of HIF1αi (2 μM) for 6 h to determine transcription of IL-1β (FIG. 16F, n=6), IL-6 (FIG. 16G, n=5), IL-8 (FIG. 16H, n=5) and CCL2 (I, n=6) by real-time RT-PCR. […] The number of cells in the scratch area was counted and compared to the untreated control, (K, n=4). RA FLS were treated with PBS or Syntenin-1 (1000 ng/ml) in the presence or absence of SDC-1 Ab (SDCab: 1:100), IL-5R Ab (IL5Ra; 2 μg/ml), or PDZli (PDZ1; 10 μM), and/or HIF1αi (2 μM) or mTORi ([…]) for 6 h before quantifying transcription levels of VEGF (FIG. 16L, n=5) and Notch1, FGF2, CXCL1, CXCL5 (FIG. 16K or 16M, n=8 or 7). Data are presented as mean±SEM; significant differences were determined by the Mann-Whitney test, 2way ANOVA, or one-way ANOVA. *p<0.05, **p<0.01, ***p<0.001, ****p<0.0001.
RA FLS and HUVEC scratch assay. […] The number of cells in the scratch area was counted and compared to the untreated control.

`CO[C@H]1C[C@@H]2CC[C@@H](C)[C@@](O)(O2)C(=O)C(=O)N2CCCC[C@H]2C(=O)O[C@H]([C@H](C)C[C@@H]2CC[C@@H](OCCO)[C@H](OC)C2)CC(=O)[C@H](C)/C=C(\C)[C@@H](O)[C@@H](OC)C(=O)[C@H](C)C[C@H](C)/C=C/C=C/C=C/1C` [mTORi, Everolimus] was tested, and the “Syntenin-1-driven RA FLS migration” value was “intercepted”.
